From US20150133493A1, “COUMARIN-BASED COMPOUNDS FOR THE TREATMENT OF ALZHEIMER'S DISEASE AND CANCER” (Sloan-Kettering Institute for Cancer Research, priority 2008, published 2015)
Entries after “also recorded” stand apart in the source; their conditions may differ.

Experiments:
[1] = tested on: N2a mouse neuroblastoma cells that stably express Swedish-mutated APP; test: Cell-based assay of secreted Aβ42, Aβ40, Aβ38 in APPsw-N2A cells; conditions: 24 hrs, in words, CS-1 up to 30 μM
Protocol: FIG. 3. Cellular evaluation of the coumarin-dimer CS-1 and its selective inhibition of Aβ42. Compounds were incubated with the APPsw-N2A mouse neuroblastoma cells for 24 hours and media were analyzed by biotinylated 4G8 and ruthenylated antibodies specific for each respective cleavage product. […] (d) Immunoprecipitation mass spectrometry analysis of CS-1 effect on secreted β-amyloid species. Aβ peptides were immunoprecipitated using 4G8 antibody and isolated with Protein G+/A agarose beads. Samples were analyzed by MALDI-MS. Samples shown are representative and each data point was performed in triplicate. (e) Cell-based Notch cleavage assay. HEK-293 cells were transfected with ΔE Notch construct and then Compound E and CS-1 were evaluated for their ability to inhibit γ-secretase-mediated Notch intracellular domain production. […] Western blot is representative and was performed in triplicate. (f) Effect of CS-1 on AICD production. N2A APPsw cell membrane was prepared and incubated with the indicated concentrations of CS-1 at 37° C. for 2 hours. The generated AICD and APP-CTFs were detected by Western Blotting using APPc antibody. Western blot is representative and was performed in triplicate.
We next set out to determine if the selective inhibition of Aβ42 was maintained in a cell-based system for APP processing. First, we compared our lead compound CS-1 (FIG. 3a) to Compound E (FIG. 3b) and the GSM compound indomethacin (FIG. 3c). N2a mouse neuroblastoma cells that stably express Swedish-mutated APP substrate were treated with the indicated compounds for 24 hrs at 37° C. Following 24 hr incubation period, the medium was collected from the cells and assayed for secreted Aβ42, Aβ40, and Aβ38. […] The result for indomethacin mirrored those findings by Kukar et al. whereby a different cell-based system was utilized (17), further validating our assay system for analysis of these Aβ species. […] This may reflect subtle variations between the cellular and in vitro conformations of γ-secretase. Nevertheless, the cell-based studies confirmed that CS-1 maintains a preference for inhibition of the γ-secretase mediated production of Aβ42 over Aβ40 or Aβ38, which is distinct to previously reported GSMs (17) and inhibitors (14-15, 18).
(§1) Cell membranes and solubilized γ-secretase were prepared as described previously (36). The in vitro and cell γ-secretase assays detecting either Aβ38, Aβ40, or Aβ42 cleavage were performed similar as previously described (21, 36). Cleaved product was detected using ruthenylated antibodies that recognize specific APP cleavage sites (Aβ31-38*, G2-10*, or G2-11* antibody for Aβ38, Aβ40, or Aβ42 respectively). The Km and Vmax in the presence and absence of γ-secretase inhibitors were analyzed by non-linear curve fit using the software SigmaPlot 8.0 with the Michaelis-Menten equation (v=Vm [S]/(Km+[S]; v: initial rate; Vm: maximum velocity; Km: the Michaelis-Menten constant, S: substrate).

γ-secretase = biological target: T1, γ-secretase (Homo sapiens, UniProt P49768); test: In vitro γ-secretase activity assay, Aβ42 production (ECL); type: biochemical; conditions: in words
T1 construct: endogenous in cells
Protocol: FIG. 2. In vitro characterization of coumarin-dimer allosteric GSIs against various γ-secretase cleavage products. […] The IC50 values were calculated from the dose response curves using a non-linear regression analysis in Prism software. […] The three β-amyloid-detection in vitro assays were modified from our previously reported assay (21) using a biotinylated substrate that eliminated the requirement of anti-β-amyloid biotinylated antibody. Ruthenylated antibodies that detected the -40, -42, or -38 cleavage site were incorporated to detect proteolysis indicative of γ-secretase activity. In vitro Notch assay utilized a recombinant transmembrane portion of the Notch peptide and anti-Notch1 SM320 antibody in conjunction with ruthenylated anti-rabbit secondary antibodies. Electrochemiluminescence was quantified on an Analyzer (BioVeris).
Briefly, recombinant peptide substrate was incubated with γ-secretase (40 μg/ml) in the presence or absence of test compound. […] The reaction was incubated for 2.5 hr at 37° C. and stopped by adding RIPA buffer (150 mM NaCl, 1.0% NP-40, 0.5% sodium deoxycholate, 0.1% SDS, 50 mM Tris HCl, pH 8.0). […] The amount of product was determined using synthetic peptide or recombinant standards.
as §1

[2] = tested on: HEK-293 cells transfected with ΔE Notch construct; test: Cell-based Notch cleavage assay (NICD production); conditions: HEK-293, ΔE Notch, 24 hrs; Western blot; CS-1 up to 30 μM
Protocol: FIG. 3. Cellular evaluation of the coumarin-dimer CS-1 and its selective inhibition of Aβ42. Compounds were incubated with the APPsw-N2A mouse neuroblastoma cells for 24 hours and media were analyzed by biotinylated 4G8 and ruthenylated antibodies specific for each respective cleavage product. […] (d) Immunoprecipitation mass spectrometry analysis of CS-1 effect on secreted β-amyloid species. Aβ peptides were immunoprecipitated using 4G8 antibody and isolated with Protein G+/A agarose beads. Samples were analyzed by MALDI-MS. Samples shown are representative and each data point was performed in triplicate. (e) Cell-based Notch cleavage assay. HEK-293 cells were transfected with ΔE Notch construct and then Compound E and CS-1 were evaluated for their ability to inhibit γ-secretase-mediated Notch intracellular domain production. […] The generated AICD and APP-CTFs were detected by Western Blotting using APPc antibody. […]
We next determined the ability of CS-1 to suppress cellular γ-secretase activity for Notch1 cleavage. […]
ΔE Notch or empty pcDNA3.1(−) construct was transfected into HEK-293 cells in a 6-well format using Lipofectamine reagent, following manufacturer's instructions. […] Samples were then centrifuged at 13,000 rpm's at 4° C. and the supernatent was collected and analyzed by Western analysis using either anti-Myc antibody at a 1:1000 dilution or anti-NICD-1 SM320 at a 1:500 dilution.

C[C@H](NC(=O)Cc1cc(F)cc(F)c1)C(=O)N[C@H]1N=C(c2ccccc2)c2ccccc2N(C)C1=O [Compound E]
effect on secreted Aβ38 production [1]: no inhibitory selectivity; also recorded: inhibited the production of all three β-amyloid species with equal potency | effect on secreted Aβ40 production [1]: no inhibitory selectivity; also recorded: inhibited the production of all three β-amyloid species with equal potency | effect on secreted Aβ42 production [1]: no inhibitory selectivity; also recorded: inhibited the production of all three β-amyloid species with equal potency | inhibitory potency and selectivity against γ-secretase cleavage activities in vitro (γ-secretase): did not exhibit any significant selectivity | effect on Notch intracellular domain (NICD) production [2]: able to prevent production of NICD; also recorded: effectively blocked all production
